# Experiments:
# antiovalbumin antibody = assay: Immunostimulant (immunoadjuvant) activity: production of humoral antibody; type: in vivo, Hartley strain guinea pigs; settings: guinea pigs bled 4 weeks after sensitization with 1 mg ovalbumin + 100 μg test compound
# Procedure: (§1) The animals sensitized were prepared as follows. Groups of 5 female Hartley strain guinea pigs, weighing 200 to 300 g, were injected in the left hind food-pad with 0.2 ml of a water-in-oil emulsion containing 1 mg of crystalline ovalbumin as antigen and 100 μg of test compound. The water-in-oil emulsion consisted of Drakeol 6VR (Pennsylvania Refining Co., U.S.A.), Arlacel A (Atlas Chemical Industries Inc., U.S.A.) and 1/75M phosphate-buffered physiological saline (pH 7.0) in a ratio of 4:1:5 by volume. Control guinea pigs were injected with a water-in-oil emulsion of similar composition containing the antigen but not test compound (Freund's incomplete adjuvant).
# To test for the enhancement of production of humoral antibody, 4 weeks after the sensitization the guinea pigs were bled by cardiac puncture. The levels of antiovalbumin antibody nitrogen were measured quantitatively using a spectrophotometric technique.
# [1] = test system: Pseudomonas aeruginosa No. 12; assay: Enhancement of nonspecific resistance to bacterial infections; type: in vivo, Std-ddY strain mice; settings: survivors 7 days after infection, mice
# Procedure: Male Std-ddY strain mice weighing about 23 g were used. Test compounds were dissolved in physiological saline and intravenously administered to the animals 72, 48 and 24 hours before the intraperitoneal infection with Pseudomonas aeruginosa No. 12 (inoculum size: 2×10^6 cells/mouse). The number of survivors were recorded 7 days after the infection.
# [2] = test system: delayed-type hypersensitivity to ovalbumin; assay: Immunostimulant (immunoadjuvant) activity: corneal response; type: in vivo, Hartley strain guinea pigs; settings: grade 0 to 3.0; guinea pigs sensitized with 1 mg ovalbumin + 100 μg test compound in water-in-oil emulsion; intracorneal ovalbumin 2 weeks after sensitization, read after 48 hours
# Procedure: as §1
# To test for the induction of delayed-type hypersensitivity to ovalbumin, that is, the enhancement of cell-mediated immunity, 2 weeks after the sensitization the guinea pigs were given an intracorneal injection of ovalbumin solution (20 mg/ml saline) to make a transient disc of opacity of approximately 5 mm in diameter. The eyes were examined after 48 hours and the extent and degree of corneal opacity were recorded. The reactions were graded from 3.0, for a strong reaction where the whole cornea was thickened, opaque and grayish-white, to 1.0, where slight opacity was observed. When no visible difference from the uninjected eye was detected, the reaction was graded as 0.
# [3] = Solubility (physicochemical properties)
# [4] = test system: delayed-type hypersensitivity to ovalbumin; assay: Immunostimulant (immunoadjuvant) activity: skin reaction; type: in vivo, Hartley strain guinea pigs; settings: extent of induration; guinea pigs sensitized with 1 mg ovalbumin + 100 μg test compound; intradermal ovalbumin 3 weeks after sensitization, measured after 48 hours
# Procedure: as §1
# To test for the induction of delayed-type hypersensitivity to ovalbumin, 3 weeks after the sensitization the guinea pigs were given an intradermal injection of ovalbumin solution (0.1 mg/0.1 ml saline) at one hind foot-pad shaved with a clipper. The size of induration was measured after 48 hours. The extent of induration was calculated by the formula as described in Biken Journal, 20, pages 95-103 (1977).
# [5] = dose 0.0125 mg/kg i.v. 72, 48 and 24 hours before i.p. infection
# [6] = dose 0.05 mg/kg i.v. 72, 48 and 24 hours before i.p. infection
# [7] = dose 0.2 mg/kg i.v. 72, 48 and 24 hours before i.p. infection
# [8] = dose 0.8 mg/kg i.v. 72, 48 and 24 hours before i.p. infection
# [9] = dose 3.1 mg/kg i.v. 72, 48 and 24 hours before i.p. infection
# [10] = dose 12.5 mg/kg i.v. 72, 48 and 24 hours before i.p. infection
Compound,Antibody nitrogen (antiovalbumin antibody),"Number of survivors/total number of test animals ([1]; dose 0.0031 mg/kg i.v. 72, 48 and 24 hours before i.p. infection)","Number of survivors/total number of test animals [1, 5]","Number of survivors/total number of test animals [1, 6]","Number of survivors/total number of test animals [1, 7]","Number of survivors/total number of test animals [1, 8]","Number of survivors/total number of test animals [1, 9]","Number of survivors/total number of test animals [1, 10]",Corneal response [2],Solubility ([3]; in diethyl ether),"Solubility ([3]; in water, 50% C1-3 alcohol)",Skin reaction [4]
"CC(=O)N[C@H]1[C@H](O[C@H]2[C@H](O[C@H](C)C(=O)N[C@@H](C)C(=O)N[C@H](CCC(=O)N[C@@H](CCC[C@@H](N)C(N)=O)C(=O)O)C(N)=O)[C@@H](NC(C)=O)C(O)O[C@@H]2CO)O[C@H](CO)[C@@H](O)[C@@H]1O (stereo partly drawn) [GMP3 -A, β-N-acetylglucosaminyl-(1→4)-N-acetylmuramyl-L-alanyl-D-isoglu taminyl-(L)-meso-2,6-diaminopimelic acid-(D)-amide]",350 ± 50 µg/mL,7/16,9/16,9/16,8/16,10/16,14/16,16/16,2.2,insoluble,Soluble,2.5
"CC(=O)N[C@H]1[C@H](O[C@H]2[C@H](O[C@H](C)C(=O)N[C@@H](C)C(=O)N[C@H](CCC(=O)N[C@@H](CCC[C@@H](N)C(N)=O)C(=O)N[C@H](C)C(=O)O)C(N)=O)[C@@H](NC(C)=O)C(O)O[C@@H]2CO)O[C@H](CO)[C@@H](O)[C@@H]1O (stereo partly drawn) [GMP4 -A, β-N-acetylglucosaminyl-(1→4)-N-acetylmuramyl-L-alanyl-D-isoglu taminyl-(L)-meso-2,6-diaminopimelic acid-(D)-amide-(L)-D-alanine]",399 ± 90 µg/mL,–,6/16,6/16,4/16,7/16,7/16,16/16,2.0,insoluble,Soluble,3.7
"β-N-acetylglucosaminyl-(1→4)-N,6-O-diacetylmuramyl-L-alanyl-D- isoglutaminyl-(L)-meso-2,6-diaminopimelic acid-(D)-amide-(L)-D-alanine [GMP4 -B]",216 ± 57 µg/mL,–,4/16,4/16,6/16,9/16,10/16,16/16,2.2,–,–,3.7
"β-N-acetylglucosaminyl-(1→4)-N,6O-diacetylmuramyl-L-alanyl-D-i soglutaminyl-(L)-meso-2,6-diaminopimelic acid-(D)-amide [GMP3 -B]",250 ± 40 µg/mL,–,5/16,7/16,9/16,10/16,12/16,16/16,2.4,insoluble,Soluble,3.5
